Legend:
[1] = test system: phospho-GAB1 Y307 in primary CLL cells; assay: immunoblot of GAB1 phosphorylation after stimulation with SDF1 or conditioned media, with or without plerixafor; type: cell-based, human
Experimental: Samples were sonicated 2×10 seconds, amplitude 60% (type: UP100H; Hielscher). […] Electrophoresis was conducted using Biorad Miniprotean system (Biorad) according to manufacturer protocol (voltage: 60-110 V, electrophoresis buffer: 25 mM TRIS, 250 mM glycine, […], pH 8.2; all reagents were obtained from Sigma Aldrich; catalog numbers: L3771, T6066, H1758, G8898). Proteins were subsequently transferred to the PVDF membrane (0.45 μm pore size, Millipore) using Biorad Miniprotean system (Biorad) according to manufacturer protocol (blot buffer: 20% methanol, 192 mM glycine, 25 mM TRIS; all reagents were obtained from Sigma Aldrich; catalog numbers: 34860, T6066, H1758, G8898).
HS5 cells (3.5×10^6) were seeded in T75 cultivation flask (TPP) in 12 ml of Dulbecco's Modified Eagle's Medium media (DMEM, catalog number: D6429, Sigma-Aldrich). The next day was original media discarded, the cells attached to the bottom of the flask were washed once with 10 ml of PBS (catalog number: 5493; Sigma Aldrich). Subsequently, the 25 ml of RPMI-1640 (catalog number: R8758, Sigma-Aldrich) media was added to the attached HS5 cells. […] This media was immediately used for experiments.
Primary CLL cells (5×10^6/ml) were cultured as described in Material and Method section. […]

primary CLL cells [2] = assay: Ca2+ flux (Fluo-4AM, flow cytometry) after SDF1 stimulation; type: cell-based, human; details: 25 μM inhibitor 6 hours, SDF1 100 μg/ml
Experimental: Primary CLL cells (5×10^6/ml) were treated with 25 μM GAB1-001 inhibitor (inhGAB1-001) or GAB1-004 inhibitor (inhGAB1-004) for 6 hours (culture conditions are described in the Material and Method section). These inhibitors were obtained from MD Anderson, USA (Lu Chen et al., PLoS Comput Biol. 2015; 11(1): e1004021.). Control cells were treated with an equal volume of DMSO also for 6 hours. After that were these cells incubated in Hanks Balanced Salt Solution (HBSS, catalog number: H6648, Sigma Aldrich) containing […] Fluo-4AM (catalog number: F14201, Thermo Fisher Scientific) for 30 minutes at 37° C. in the dark. The cells were subsequently prepared for analysis according to instructions provided by the manufacturer of Fluo-4AM. The malignant B cells were subsequently analyzed by flow cytometry (BD FACS Verse, BD Biosciences). Samples were acquired for 60 seconds without stimulation. After that the cells were immediately stimulated by SDF1 100 μg/ml (catalog number: 300-28A, Peprotech). […] To calculate the response to SDF1, we established a baseline fluorescence threshold for each sample (by acquiring samples for 60 seconds without any stimulus). We then calculated the peak Fluo-4AM signal and the percentage of cells with fluorescence intensity above baseline Fluo-4AM signal following stimulation addition.

primary CLL cells [3] = assay: viability by DiOC6/PI staining, flow cytometry; type: cell-based; details: Homo sapiens, CLL cell, 48 hours, DMSO control 55.67
Experimental: To see the effect of GAB1 inhibitors on malignant B cell viability we treated 5×10^6/ml of primary CLL cells with different doses (10, 25 or 50 μM) of GAB1-001 inhibitor (inhGAB1-001) or GAB1-004 inhibitor (inhGAB1-004) for 48 hours. These inhibitors were obtained from MD Anderson, USA (Lu Chen et al., PLoS Comput Biol. 2015; 11(1): e1004021.). Control cells were treated with an equal volume of DMSO also for 48 hours (culture conditions are described in the Material and Method section). After that, the cells were stained with DiOC6/PI (3,3′-dihexyloxacarbocyanine iodide together with propidium iodide; catalog numbers: D273 and P3566; both were obtained from Thermo Fisher Scientific). Cells were stained and analyzed according to manufacturer protocol. The analysis was performed using BD FACS Verse flow cytometer (BD Biosciences).

MEC1 cells = assay: viability by DiOC6/PI staining, ibrutinib and/or GAB1 inhibitors; type: cell-based; details: ibrutinib 1 μM six days, then GAB1 inhibitors 25 μM 48 hours, DMSO control 85.20
Experimental: Cells were cultivated for six days (see Material and Method section) and ibrutinib or DMSO were supplemented each second day. […] After that were cells harvested and stained for viability using DiOC6/PI (3,3′-dihexyloxacarbocyanine iodide together with propidium iodide (catalog numbers: D273 and P3566; both were obtained from Thermo Fisher Scientific). Cells were stained and analyzed according to manufacturer protocol. The analysis was performed using BD FACS Verse flow cytometer (BD Biosciences).

primary CLL cells [4] = assay: competitive migration assay (transwell) after inhibitor treatment; type: cell-based, human; details: GAB1 inhibitors 50 μM, ibrutinib 1 μM, 12 hours, migration towards conditioned media (50%) 6 hours, control set to 1
Experimental: HS5 cells (3.5×10^6) were seeded in T75 cultivation flask (TPP) in 12 ml of Dulbecco's Modified Eagle's Medium media (DMEM, catalog number: D6429, Sigma-Aldrich). The next day was original media discarded, the cells attached to the bottom of the flask were washed once with 10 ml of PBS (catalog number: 5493; Sigma Aldrich). Subsequently, the 25 ml of RPMI-1640 (catalog number: R8758, Sigma-Aldrich) media was added to the attached HS5 cells. After 48 hours was this conditioned media collected, purified from cell-debris by 10 minutes centrifugation at 2000 RCF and subsequently diluted with fresh RPMI-1640 media (catalog number: R8758, Sigma-Aldrich) containing 10% FBS (catalog number: FB-1350; Biosera) and 5% penicillin/streptomycin (catalog number: P4333; Sigma Aldrich) to final concentration 50% conditioned media. This media was immediately used for experiments.
To compare the migration, the stained cells (control cells plus one treated variant) were mixed in ratio 1:1 and loaded in transwell inserts (24 well insert, 8 μm pore size; Falcon, Corning) according to manufacturer protocol. […] The ratio of migrated inhibitor-treated cells was calculated by dividing of the percentage of migrated inhibitor-treated cells by percentage of migrated control cells.

[5] = test system: JEKO (Mantle cell lymphoma); assay: viability by DiOC6/PI staining, ibrutinib and/or GAB1 inhibitors; type: cell-based; details: ibrutinib 1 μM six days, then GAB1 inhibitors 25 μM 48 hours, DMSO control 76.64
Experimental: (§1) Cells were cultivated for six days (see Material and Method section) and ibrutinib or DMSO were supplemented each second day. […] The analysis was performed using BD FACS Verse flow cytometer (BD Biosciences).

[6] = test system: ML2 (Acute myeloid leukemia); assay: as above; type: cell-based; details: ibrutinib 1 μM six days, then GAB1 inhibitors 25 μM 48 hours, DMSO control 76.92
Experimental: as §1

[7] = test system: OciLy5 (Small lymphocytic leukemia); assay: as above; type: cell-based; details: ibrutinib 1 μM six days, then GAB1 inhibitors 25 μM 48 hours, DMSO control 81.47
Experimental: as §1

DOHH2 (GC-DLBCL) = assay: viability by DiOC6/PI staining, GAB1 inhibitors; type: cell-based; details: Homo sapiens, DOHH-2, 48 hours, DMSO control 81.84
Experimental: (§2) In a further experiment, 2.5×10^6/ml of RAMOS (derived from Burkitt's lymphoma) or DOHH2 (derived from diffuse large B cell lymphoma) or GRANTA (derived from […]) or WSU-NHL (derived from follicular lymphoma) cells was treated with treated with two different GAB inhibitors (inhGAB1-001 and inhGAB1-004; provided by MD Anderson, USA (Lu Chen et al., PLoS Comput Biol. 2015; 11(1): e1004021.) at final concentration 25 μM, or with an equal volume of vehicle (DMSO) for 48 hours. After that, cells were harvested and stained for viability using DiOC6/PI (3,3′-dihexyloxacarbocyanine iodide together with propidium iodide; catalog numbers: D273 and P3566; both were obtained from Thermo Fisher Scientific). Cells were stained and analyzed according to manufacturer protocol. The analysis was performed using BD FACS Verse flow cytometer (BD Biosciences).

[8] = test system: GRANTA (Acute lymphoblastic leukemia); assay: viability by DiOC6/PI staining, GAB1 inhibitors; type: cell-based; details: 48 hours, DMSO control 87.24
Experimental: as §2

[9] = test system: RAMOS (Burkitt's lymphoma); assay: viability by DiOC6/PI staining, GAB1 inhibitors; type: cell-based; details: Homo sapiens, 48 hours, DMSO control 95.01
Experimental: as §2

[10] = test system: WSU-NHL (Follicular lymphoma); assay: viability by DiOC6/PI staining, GAB1 inhibitors; type: cell-based; details: Homo sapiens, 48 hours, DMSO control 87.34
Experimental: as §2

Compound: SDF1: Stromal cell-derived factor 1, chemokine ligand used as stimulus
- GAB1 phosphorylation on stimulation (FIG. 1A) ([1]; SDF1 100 ng/ml, 5 minutes): phosphorylation and thus activation of GAB1 protein

Compound: O=S(=O)(NCc1csc2ccc(Cl)cc12)c1cc(S(=O)(=O)c2ccccc2)cs1 [inhGAB1-001]
- Ca2+ flux after treatment with SDF1 (FIG. 2G) (primary CLL cells [2]): decreases the Ca^2+ flux
- viability at 10 µM (primary CLL cells [3]): 52.8%
- viability at 25 µM (primary CLL cells [3]): 50.3%
- viability at 50 µM (primary CLL cells [3]): 31%
- % of viability (MEC1 cells): 67.00%
- Ratio of migrated cells (primary CLL cells [4]): 0.79
- % of viability [5]: 2.88%
- % of viability [6]: 6.86%
- % of viability [7]: 53.12%
- viability at 25 µM (DOHH2 (GC-DLBCL)): 51.9%
- viability at 25 µM [8]: 4.49%
- viability at 25 µM [9]: 50.3%
- viability at 25 µM [10]: 29.4%

Compound: O=c1[nH]nc(SCc2csc(-c3ccccc3)n2)n1Cc1ccco1 [inhGAB1-004]
- Ca2+ flux after treatment with SDF1 (FIG. 2G) (primary CLL cells [2]): decreases the Ca^2+ flux
- viability at 10 µM (primary CLL cells [3]): 44.7%
- viability at 25 µM (primary CLL cells [3]): 42.6%
- viability at 50 µM (primary CLL cells [3]): 37.4%
- % of viability (MEC1 cells): 74.52%
- Ratio of migrated cells (primary CLL cells [4]): 0.75
- % of viability [5]: 49.20%
- % of viability [6]: 28.07%
- % of viability [7]: 62.46%
- viability at 25 µM (DOHH2 (GC-DLBCL)): 72.3%
- viability at 25 µM [8]: 74.1%
- viability at 25 µM [9]: 74.6%
- viability at 25 µM [10]: 70.2%

Compound: C=CC(=O)N1CCC[C@@H](n2nc(-c3ccc(Oc4ccccc4)cc3)c3c(N)ncnc32)C1 [ibrutinib]
- % of viability (MEC1 cells): 81.66%
- % of viability [5]: 60.14%
- % of viability [6]: 68.93%
- % of viability [7]: 80.33%

Compound: c1cc(CN2CCCNCCNCCCNCC2)ccc1CN1CCCNCCNCCCNCC1 [plerixafor]
- GAB1 phosphorylation on conditioned media in the presence of plerixafor (FIG. 1A) ([1]; plerixafor 5 μg/ml 8 hours, 50% conditioned media 5 minutes): also led to GAB1 phosphorylation

From US11648255B2, “Inhibitors for treatment of hematological malignancies” (Masarykova Univerzita, priority 2020, dated 2023)
